Measured values as given in US20250163051A1, “PYRIMIDO AROMATIC RING COMPOUND AND USE THEREOF IN DRUG” (SUNSHINE LAKE PHARMA CO., LTD., priority 2022, published 2025).

Legend:
[1] = Cell toxicity (Celltiter-Glo) in HEK-Blue hTLR8 cells; conditions: human
hTLR7 = target: T1, hTLR7 (Homo sapiens, UniProt Q9NYK1); assay: Agonistic activity on human TLR7 in HEK-Blue hTLR7 cells (QUANTI-Blue); type: cell-based; conditions: 24 h incubation, OD650, read-out: hTLR 7 EC50
T1 construct: expressed in transfected cells; host or cells: HEK-Blue hTLR7 cells
T1 sequence (Q9NYK1 27-1049): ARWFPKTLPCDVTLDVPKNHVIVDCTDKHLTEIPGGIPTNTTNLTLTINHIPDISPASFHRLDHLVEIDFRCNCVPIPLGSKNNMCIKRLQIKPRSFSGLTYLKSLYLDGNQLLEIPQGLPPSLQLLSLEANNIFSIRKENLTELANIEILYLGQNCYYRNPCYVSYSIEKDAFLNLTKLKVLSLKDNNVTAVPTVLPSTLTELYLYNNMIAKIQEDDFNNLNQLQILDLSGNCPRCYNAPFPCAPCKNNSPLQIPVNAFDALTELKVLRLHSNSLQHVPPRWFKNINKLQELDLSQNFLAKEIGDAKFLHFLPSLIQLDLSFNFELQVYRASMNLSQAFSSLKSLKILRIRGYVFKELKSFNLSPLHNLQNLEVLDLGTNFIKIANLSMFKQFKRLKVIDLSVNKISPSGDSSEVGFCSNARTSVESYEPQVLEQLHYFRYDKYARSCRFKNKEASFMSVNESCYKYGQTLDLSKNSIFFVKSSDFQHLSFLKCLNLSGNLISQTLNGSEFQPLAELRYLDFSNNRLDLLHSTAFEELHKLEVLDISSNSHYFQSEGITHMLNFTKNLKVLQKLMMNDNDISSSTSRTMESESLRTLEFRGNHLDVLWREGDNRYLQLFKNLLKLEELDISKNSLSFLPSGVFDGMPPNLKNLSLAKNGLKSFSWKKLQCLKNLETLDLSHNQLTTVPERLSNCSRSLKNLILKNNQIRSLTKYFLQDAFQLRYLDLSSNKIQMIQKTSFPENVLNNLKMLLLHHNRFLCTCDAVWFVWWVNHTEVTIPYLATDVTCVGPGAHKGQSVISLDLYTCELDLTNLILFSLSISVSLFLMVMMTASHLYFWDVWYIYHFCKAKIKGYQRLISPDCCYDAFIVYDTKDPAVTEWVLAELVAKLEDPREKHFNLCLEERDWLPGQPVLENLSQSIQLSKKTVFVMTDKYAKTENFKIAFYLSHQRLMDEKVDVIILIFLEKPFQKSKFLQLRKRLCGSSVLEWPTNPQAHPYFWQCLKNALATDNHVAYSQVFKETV

hTLR8 = target: T2, hTLR8 (Homo sapiens, UniProt Q9NR97); assay: Agonistic activity on human TLR8 in HEK-Blue hTLR8 cells (QUANTI-Blue); type: cell-based; conditions: 24 h incubation, OD650, read-out: hTLR 8 EC50
T2 construct: expressed in transfected cells; host or cells: HEK-Blue hTLR8 cells
T2 sequence (Q9NR97 27-1041): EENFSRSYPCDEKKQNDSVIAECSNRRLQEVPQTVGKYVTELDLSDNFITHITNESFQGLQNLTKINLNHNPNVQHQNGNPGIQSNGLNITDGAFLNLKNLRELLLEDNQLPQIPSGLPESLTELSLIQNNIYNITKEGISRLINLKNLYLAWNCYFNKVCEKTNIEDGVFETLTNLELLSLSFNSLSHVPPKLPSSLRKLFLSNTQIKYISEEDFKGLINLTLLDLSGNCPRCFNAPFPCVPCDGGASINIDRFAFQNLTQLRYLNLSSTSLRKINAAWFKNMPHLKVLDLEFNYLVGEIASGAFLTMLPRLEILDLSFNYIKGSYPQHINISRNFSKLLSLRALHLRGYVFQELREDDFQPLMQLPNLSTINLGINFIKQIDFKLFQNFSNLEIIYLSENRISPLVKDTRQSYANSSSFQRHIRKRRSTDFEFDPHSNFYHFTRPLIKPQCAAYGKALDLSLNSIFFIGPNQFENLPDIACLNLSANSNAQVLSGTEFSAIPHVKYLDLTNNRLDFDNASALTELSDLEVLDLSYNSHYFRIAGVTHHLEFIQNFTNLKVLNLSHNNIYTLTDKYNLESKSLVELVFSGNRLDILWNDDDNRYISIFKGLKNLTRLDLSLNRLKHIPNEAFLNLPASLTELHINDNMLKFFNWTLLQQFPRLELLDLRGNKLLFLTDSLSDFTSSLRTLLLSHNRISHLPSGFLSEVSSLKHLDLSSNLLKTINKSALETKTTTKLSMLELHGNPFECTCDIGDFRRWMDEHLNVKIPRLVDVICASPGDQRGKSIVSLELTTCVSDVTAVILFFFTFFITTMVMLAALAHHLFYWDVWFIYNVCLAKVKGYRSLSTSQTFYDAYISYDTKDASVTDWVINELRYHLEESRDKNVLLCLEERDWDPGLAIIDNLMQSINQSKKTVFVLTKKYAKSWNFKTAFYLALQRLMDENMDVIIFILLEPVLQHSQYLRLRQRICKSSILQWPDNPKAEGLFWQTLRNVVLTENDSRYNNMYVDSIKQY
Protocol: Purpose: HEK-Blue™ hTLR7 and HEK-Blue™ hTLR8 cells were used to detect the agonist and cytotoxic activities of compounds against hTLR7 and hTLR8.
The experimental steps were as shown below: • 1) Preparation of compound: The compound was prepared into a 20 mM stock solution with DMSO, and then the stock solution was diluted 3-fold in a gradient and added to a 96-well plate, for a total of 10 concentrations, with duplicate wells for each concentration. For negative control wells, 0.5 μL DMSO was added to each well. The final DMSO concentration was 0.5%. • 2) HEK-Blue™ hTLR7 or HEK-Blue™ hTLR8 cells were suspended in culture medium and then seeded into 96-well plates containing compounds at a cell count of 50,000 per well. The compounds and cells were incubated for 24 h at 37° C., 5% Co2. • 3) QUANTI-Blue was used for the detection solution: to a mixture of 1 mL of QB reagent and 1 mL of QB buffer was added 98 mL of sterile water, the mixture was mixed and dissolved, and then placed at room temperature for 10 min. • 4) Activity test of the compound: 20 μL of the culture supernatant in step 2) was added to each well of a 96-well plate containing 180 μL of QUANTI-Blue detection solution. After incubation at 37° C. for 1 h, the absorbance at 650 nm (OD650) was detected using a multifunctional microplate reader Flextation III. • 5) Detection of cell activity: The chemiluminescent signal (RLU) was detected using the multifunctional microplate reader Flextation III according to the instructions of Celltiter-Glo. • 6) Data analysis
Activity of compounds: OD650 values were analyzed using GraphPad Prism software, and the compound dose-effect curves were fitted to calculate the EC50 values of the compounds.

| Structure (SMILES) | EC50 (hTLR7) [µM] | EC50 (hTLR8) [µM] | CC50 at 24 h [1] [µM] |
| --- | --- | --- | --- |
| CCCC[C@](C)(CO)Nc1nc(N)nc2cc(-c3cc(=O)n(C)cc3CN(C)CCc3ccccc3)cnc12 [Example 1, (R)-4-(2-Amino-4-((1-hydroxy-2-methylhexan-2-yl)amino)pyrido[3,2-d]pyrimidin-7-yl)-1-methyl-5-((methyl(phenethyl)amino)methyl)pyridin-2(1H)-one] | 73 | 1.82 |  |
| C=CCCN(C)Cc1cn(C)c(=O)cc1-c1ccc2c(N[C@](C)(CCCC)CNC(=O)c3cnn(C)c3)nc(N)nc2c1 [Example 46] | > 100 | 0.569 | > 100 |
| CC#CCN(C)Cc1c[nH]c(=O)cc1-c1cnc2c(N[C@@](C)(CO)CCCC)nc(N)nc2c1 [Example 27] | > 100 | 4.25 | > 100 |
| C=CCCN(C)Cc1c[nH]c(=O)cc1-c1cnc2c(N[C@@H](CO)CCCC)nc(N)nc2c1 [Example 42, (R)-4-(2-Amino-4-((1-hydroxyhexan-2-yl)amino)pyrido[3,2-d]pyrimidin-7-yl)-5-((but-3-en-1-yl (methyl)amino)methyl)pyridin-2(1H)-one] | > 100 | 0.595 | > 100 |
| CCCC[C@](C)(CO)Nc1nc(N)nc2cc(-c3cc(=O)[nH]cc3CN(C)CCNC)cnc12 [Example 20] | > 100 | 2.85 | > 100 |
| C=CCC(=O)N(C)Cc1c[nH]c(=O)cc1-c1cnc2c(N[C@@](C)(CO)CCCC)nc(N)nc2c1 [Example 40, (R)—N-((4-(2-Amino-4-((1-hydroxy-2-methylhexan-2-yl)amino)pyrido[3,2-d]pyrimidin-7-yl)-6-oxo-1,6-dihydropyridin-3-yl)methyl)-N-methylbut-3-enamide] | > 100 | 1.52 | > 100 |
| C=CCCN(CCC=C)Cc1cn(C)c(=O)cc1-c1cnc2c(N[C@@](C)(CO)CCCC)nc(N)nc2c1 [Example 3] | > 100 | 1.46 |  |
| CCCCN(CCCC)Cc1cn(C)c(=O)cc1-c1cnc2c(N[C@@](C)(CO)CCCC)nc(N)nc2c1 [Example 4] | > 100 | 1.07 |  |
| CCCCN(C)Cc1c[nH]c(=O)cc1-c1cnc2c(N[C@](C)(CCCC)COC)nc(N)nc2c1 [Example 53, (R)-4-(2-Amino-4-((1-methoxy-2-methylhexan-2-yl)amino)pyrido[3,2-d]pyrimidin-7-yl)-5-((butyl(methyl)amino)methyl)pyridin-2(1H)-one] |  | 0.68 |  |
| CCCC[C@](C)(CO)Nc1nc(N)nc2cc(-c3cc(=O)[nH]cc3CN(C)CCc3ccccc3)cnc12 [Example 11] |  | 1.65 |  |
| CCCC[C@](C)(CO)Nc1nc(N)nc2cc(-c3cc(=O)[nH]cc3CN3CCNCC3)cnc12 [Example 15] |  |  | > 100 |
| CCCC[C@H](CO)Nc1nc(N)nc2cc(-c3cc(=O)[nH]cc3CN(C)CCCC)cnc12 [Example 43, (R)-4-(2-Amino-4-((1-hydroxyhexan-2-yl)amino)pyrido[3,2-d]pyrimidin-7-yl)-5-((butyl(methyl)amino)methyl)pyridin-2(1H)-one] |  |  | > 100 |
| C#CCCN(C)Cc1cn(C)c(=O)cc1-c1cnc2c(N[C@@](C)(CO)CCCC)nc(N)nc2c1 [Example 6] | > 100 | 3.9 |  |
| CCCC[C@](C)(CO)Nc1nc(N)nc2cc(-c3cc(=O)[nH]cc3CN3CCC(F)(F)CC3)cnc12 [Example 26] | 54.6 | 0.845 |  |

Continued by falling EC50 (hTLR8), values first:

| EC50 (hTLR7) [µM] | EC50 (hTLR8) [µM] | Structure (SMILES) | CC50 at 24 h [1] [µM] |
| --- | --- | --- | --- |
| > 100 | 0.418 | CCCC[C@](C)(CO)Nc1nc(N)nc2cc(-c3cc(=O)n(C)cc3CNCCOC)ccc12 [Example 61, (R)-4-(2-Amino-4-((1-hydroxy-2-methylhexan-2-yl)amino)quinazolin-7-yl)-5-(((2-methoxyethyl)amino)methyl)-1-methylpyridin-2(1H)-one] | > 100 |
| 47.2 | 0.399 | CCCCN(CCCC)Cc1c[nH]c(=O)cc1-c1ccc2c(N[C@@](C)(CO)CCCC)nc(N)nc2c1 [Example 32] |  |
| > 100 | 0.397 | C=CCCN(C)Cc1cn(C2CCN(C)CC2)c(=O)cc1-c1cnc2c(N[C@@](C)(CO)CCCC)nc(N)nc2c1 [Example 37, (R)-4-(2-Amino-4-((1-hydroxy-2-methylhexan-2-yl)amino)pyrido[3,2-d]pyrimidin-7-yl)-5-((but-3-en-1-yl(methyl)amino)methyl)-1-(1-methylpiperidin-4-yl)pyridin-2(1H)-one] |  |
| 29.9 | 0.354 | C=CCCOCc1c[nH]c(=O)cc1-c1cnc2c(N[C@@](C)(CO)CCCC)nc(N)nc2c1 [Example 41, (R)-4-(2-Amino-4-((1-hydroxy-2-methylhexan-2-yl)amino)pyrido[3,2-d]pyrimidin-7-yl)-5-((but-3-en-1-yloxy)methyl)pyridin-2(1H)-one] | > 100 |
| > 100 | 0.315 | C=CCCN(C)Cc1cn(C)c(=O)cc1-c1cnc2c(N[C@@](C)(CO)CCCC)nc(N)nc2c1 [Example 7] | > 100 |
| 23.2 | 0.267 | CCCC[C@](C)(CO)Nc1nc(N)nc2cc(-c3cc(=O)[nH]cc3CN(C)CCc3ccccc3)ccc12 [Example 29, (R)-4-(2-Amino-4-((1-hydroxy-2-methylhexan-2-yl)amino)quinazolin-7-yl)-5-((methyl(phenethyl)amino)methyl)pyridin-2(1H)-one] |  |
| 56.7 | 0.209 | C=CCCN(CCC=C)Cc1c[nH]c(=O)cc1-c1ccc2c(N[C@@](C)(CO)CCCC)nc(N)nc2c1 [Example 31] |  |
| > 100 | 0.198 | CCCCNCc1cn(C)c(=O)cc1-c1ccc2c(N[C@@](C)(CO)CCCC)nc(N)nc2c1 [Example 62, (R)-4-(2-Amino-4-((1-hydroxy-2-methylhexan-2-yl)amino)quinazolin-7-yl)-5-((butylamino)methyl)-1-methylpyridin-2(1H)-one] | > 100 |
| > 100 | 0.132 | C=CCCN(CC)Cc1c[nH]c(=O)cc1-c1cnc2c(N[C@@](C)(CO)CCCC)nc(N)nc2c1 [Example 18] | > 100 |
| 65.8 | 0.104 | CCCC[C@](C)(CO)Nc1nc(N)nc2cc(-c3cc(=O)[nH]cc3CN3CCCCC3)cnc12 [Example 16] |  |
| > 100 | 0.1 | CCCC[C@](C)(CO)Nc1nc(N)nc2cc(-c3cc(=O)n(C)cc3CN(C)CCC3CC3)cnc12 [Example 2] |  |
| 12 | 0.023 | CCCCN(C)Cc1c[nH]c(=O)cc1-c1cnc2c(N[C@@](C)(CO)CCCC)nc(N)nc2c1 [Example 69, 4-(2-Amino-4-((1-hydroxy-2-methylhexan-2-yl)amino)pyrido[3,2-d]pyrimidin-7-yl)-5-((butyl(methyl)amino)methyl)pyridin-2(1H)-one] |  |
| 50.8 | 0.019 | CCCC[C@](C)(CO)Nc1nc(N)nc2cc(-c3cc(=O)[nH]cc3CN(C)CCC3CC3)cnc12 [Example 12] |  |
